These results are taken from ChEMBL document CHEMBL5579812, “"PROTAC" modified dihydroquinolizinones (DHQs) that cause degradation of PAPD-5 and inhibition of hepatitis A virus and hepatitis B virus, in vitro” (Bioorg Med Chem Lett, 2024).

Usually IC50 stands for the concentration that inhibits the measured activity by half. Low readings indicate higher potency, high ones lower potency. A word on the CC50: it is the concentration at which the toxic effect on the cells reaches its halfway point.

Structures are written as SMILES. Calls of active or inactive are those of the source. No cut-off for these calls is given here.

Data set [1] concerns Huh-7.5. Put plainly: Effect on actin expression in human Huh7.5 cells at 1 uM incubated for 24 hrs by Western blot analysis. It counts as functional, cell-based. (A western blot detects proteins with antibodies after separation by electrophoresis.)
Data set [2] is described as follows: Inhibition HBsAg secretion in human HepG2.2.15 cells treated for 3 days followed by medium replacement without compound measured after 2 days by CLIA. Format: functional, cell-based. As to conditions: HepG2 2.2.15.
Data set [3] deals with Huh-7.5. The experiment in a line: Effect on PAPD5 expression in human Huh7.5 cells at 1 uM incubated for 24 hrs by Western blot analysis. Format: functional, cell-based.
Data set [4] deals with Huh-7.5. The experiment in a line: Effect on PAPD7 expression in human Huh7.5 cells at 1 uM incubated for 24 hrs by Western blot analysis. It counts as functional, cell-based.
The test system of data set [5] is HepG2.2.15. The experiment in a line: Inhibition of 2.1 to 3.5 kb HBV mRNA accumulation in human HepG2.2.15 cells at 1 to 2 nM treated for 5 days by northern blot analysis. As to conditions: Hepatitis B virus, dose 1-2 nM, time 5.0 day. It counts as functional, cell-based.
Data set [6] in a line: Cytotoxicity against human Huh7.5 cells. It counts as toxicity, cell-based, Huh-7.5.
Another data set relates to Hepatovirus A. The experiment in a line: Inhibition of replication of Hepatitis A virus expressing 18f-NLuc infected in human Huh7.5 cells treated for 48 hrs by luminescence based analysis. It counts as functional, organism-based. Particulars: for IC50: Huh7.5, 48 h.
Data set [7] deals with HepG2.2.15. Put plainly: Inhibition of 2.1 to 3.5 kb HBV mRNA accumulation in human HepG2.2.15 cells at 7.5 to 15 uM treated for 5 days by northern blot analysis. Format: functional, cell-based. As to conditions: Hepatitis B virus, dose 7.5-15 µM, time 5.0 day.
For data set [8], the system named is Huh-7.5. The experiment in a line: Effect on PAPD5 expression in human Huh7.5 cells at 250 nM incubated for 24 hrs by Western blot analysis. It counts as functional, cell-based.
The test system of data set [9] is Huh-7.5. Put plainly: Effect on PAPD7 expression in human Huh7.5 cells at 250 nM incubated for 24 hrs by Western blot analysis. Format: functional, cell-based.
The nature of data set [10]: Cytotoxicity against human Huh-7 cells assessed as cell viability by Cell Titer Glo assay. Format: toxicity, cell-based.
Data set [11] concerns Huh-7.5. Put plainly: Effect on actin expression in human Huh7.5 cells at 10 uM incubated for 24 hrs by Western blot analysis. It counts as functional, cell-based.
For data set [12], the system named is Huh-7.5. The experiment in a line: Effect on PAPD7 expression in human Huh7.5 cells at 10 uM incubated for 24 hrs by Western blot analysis. Format: functional, cell-based.
The nature of data set [13]: Inhibition HBsAg secretion in human Huh-7 cells harboring pHBV1.3 treated for 2 days followed by replacement of medium containing compound measured after 4 days by CLIA. It counts as functional, cell-based.
Data set [14] deals with T1, Protein cereblon/Terminal nucleotidyltransferase 4B (Homo sapiens) (UniProt Q96SW2+Q8NDF8). The experiment in a line: PROTAC activity at CRBN/PAPD5 in human Huh7.5 cells assessed as protein degradation at 10 uM incubated for 24 hrs by Western blot analysis. Format: cell-based.
T1 sequence (Q8NDF8 whole entry, looked up): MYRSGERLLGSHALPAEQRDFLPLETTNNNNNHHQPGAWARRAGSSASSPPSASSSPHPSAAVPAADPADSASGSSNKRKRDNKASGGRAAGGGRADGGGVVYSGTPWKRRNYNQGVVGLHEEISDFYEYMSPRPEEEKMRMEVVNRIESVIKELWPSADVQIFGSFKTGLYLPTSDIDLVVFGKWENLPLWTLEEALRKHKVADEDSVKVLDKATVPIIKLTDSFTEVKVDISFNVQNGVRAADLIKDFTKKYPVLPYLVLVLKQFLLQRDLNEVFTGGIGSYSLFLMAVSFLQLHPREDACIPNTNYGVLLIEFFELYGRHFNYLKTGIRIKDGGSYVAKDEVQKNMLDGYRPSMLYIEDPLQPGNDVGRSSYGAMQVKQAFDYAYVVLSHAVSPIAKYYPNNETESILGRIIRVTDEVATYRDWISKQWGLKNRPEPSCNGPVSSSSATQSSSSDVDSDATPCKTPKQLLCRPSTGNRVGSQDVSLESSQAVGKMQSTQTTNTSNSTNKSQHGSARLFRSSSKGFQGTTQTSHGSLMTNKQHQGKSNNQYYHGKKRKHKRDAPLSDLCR
T1 sequence (Q96SW2 whole entry, looked up): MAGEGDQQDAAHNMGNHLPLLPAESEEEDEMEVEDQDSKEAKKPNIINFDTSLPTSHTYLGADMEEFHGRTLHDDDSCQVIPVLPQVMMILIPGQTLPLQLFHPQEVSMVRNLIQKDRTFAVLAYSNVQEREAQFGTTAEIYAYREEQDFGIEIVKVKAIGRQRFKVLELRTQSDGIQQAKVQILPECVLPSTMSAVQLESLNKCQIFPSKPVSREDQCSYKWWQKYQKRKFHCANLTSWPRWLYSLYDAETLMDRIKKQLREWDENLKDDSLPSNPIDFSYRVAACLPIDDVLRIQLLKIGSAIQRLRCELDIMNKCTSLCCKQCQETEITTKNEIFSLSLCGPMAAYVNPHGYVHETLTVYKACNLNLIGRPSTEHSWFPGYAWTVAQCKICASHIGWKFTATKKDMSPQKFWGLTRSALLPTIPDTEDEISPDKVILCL
Data set [15] deals with T1, Protein cereblon/Terminal nucleotidyltransferase 4B (Homo sapiens). Put plainly: PROTAC activity at CRBN/PAPD5 in human Huh7.5 cells assessed as protein degradation at 10 uM incubated for 24 hrs in presence of epoxomicin by Western blot analysis. Format: cell-based.

Turning to `COCCCOc1cc2c(cc1OC)-c1cc(=O)c(C(=O)O)cn1[C@H](C(C)C)C2`, the result in the data set on Huh-7.5 [1], with Huh-7.5 [3] and with Huh-7.5 [4] was inactive. Also, the IC50 in data set [2] was determined as 0.001 µM. Also, the inhibition entry in the data set on HepG2.2.15 [5] is “Active”.

On to `COc1cc2c(cc1OCCCNC(=O)CCOCCOCCOCCNc1cccc3c1C(=O)N(C1CCC(=O)NC1=O)C3=O)C[C@@H](C(C)C)n1cc(C(=O)O)c(=O)cc1-2` (some centres not stated), for which the CC50 in data set [6] is more than 50 µM. For the same molecule, in the data set on Hepatovirus A, the inhibition entry was “Dose-Dependent Effect” and the IC50 came to 0.576 µM. The inhibition entry in the data set with HepG2.2.15 [7] is “Active”.

With `CC[C@H](C)[C@H](NC(=O)[C@H]([C@@H](C)CC)N(C)C(C)=O)C(=O)N[C@H](C(=O)N[C@@H](CC(C)C)C(=O)[C@@]1(C)CO1)[C@@H](C)O`, the outcome in the data set with Huh-7.5 [8] and in the data set on Huh-7.5 [9] was inactive.

For `COc1cc2c(cc1OCCCNC(=O)CCOCCOCCOCCOCCOCCOCCNc1cccc3c1C(=O)N(C1CCC(=O)NC1=O)C3=O)C[C@@H](C(C)C)n1cc(C(=O)O)c(=O)cc1-2` (some centres not stated), the CC50 in data set [10] and in data set [6] was more than 50 µM in each case. The result (with Huh-7.5 [11]; in the data set on Huh-7.5 [12]; in data set [15]) was inactive. Moreover, the IC50 was found to be 16.2 µM in data set [2], 10.6 µM in data set [13] and 0.277 µM in the data set on Hepatovirus A. The inhibition entry in the data set with Hepatovirus A was “Dose-Dependent Effect”. Also, the inhibition result in the data set on HepG2.2.15 [7] was “Active”. Moreover, the outcome in [14] was Active.
